Data on one molecule can be found in patent EP3964511A1, “BIOORTHOGONAL CHOLESTEROL PROBE AND USES THEREOF” (Universidad del País Vasco/Euskal Herriko Unibertsitatea, priority 2020, dated 2022).

Data set [1] relates to HeLa cells. In words: Competition assay of cellular uptake against natural chol. It counts as cell-based, Human. The note with it: probe fixed at 5 µM, chol 0-1 mM, 1 h co-incubation; result stated at 500 µM chol. Here is the method: A competition assay was designed to test chol-N3 and fluorescently pre-labeled chol-N3 uptake by cells. HeLa cells were seeded onto coverslips in DMEM supplemented with 10% FBS, and co-incubated with a fixed concentration of chol-N3 (5 µM) or with chol-N3 (5 µM) labeled with 10 µM AF 488-DBCO and an increasing concentration of natural chol (ranging from 0 to 1 mM) added externally to the cells. After 1h co-incubation of cells with the mixture, cells were stained in vivo with 25 µM AF 488-DBCO for 60 min, counterstained with DAPI, fixed, and imaged using a ZEISS apotome. Alternaltively, HeLa cells were treated with 5 µM Bodipy-chol in DMEM supplemented with 10% FBS and co-incubated with increasing concentration of natural chol (0-1mM) for 1h. Cells were fixed, and counterstained with DAPI.
Human cervix adenocarcinoma HeLa cells and human bone marrow neuroblast SH-SY5Y cells were obtained from ATCC. HeLa cells were maintained in DMEM (Dulbecco's modified Eagle's medium) supplemented with 10% FBS, 2 mM Glutamax, 100 units/ml penicillin, and 100 µg/ml streptomycin (Life Technologies) at 37 °C with 5% CO2. SH-SY5Y cells were maintained in DMEM/F12 (F12 and Dulbecco's modified Eagle's medium) supplemented with 10% FBS and 1% penicillin and streptomycin. (Life Technologies) at 37°C with 5% CO2.

Data set [2] can be described thus: In vitro laurdan generalized polarization (GP) in LUVs. It counts as physicochemical. The note with it: POPC LUVs with 10% sterol (labeled adduct 90%:8%:2%), compared with chol. Here is the method:
Large unilamellar vesicles (LUV) composed of POPC:chol (90%:10%), POPC:chol-N3 (90%:10%) or POPC/chol-N3/chol-N3-AF 647-DBCO (90%:8%:2%) were prepared following the extrusion method described by Cebecauer M. et al. (Membrane Lipid Nanodomains. Chem Rev, 2018). Laurdan was added in the organic phase before solvent evaporation. Laurdan labeled liposomes at a concentration of 30 µM were kept under continuous stirring, and the determination of GP profiles at different temperatures was performed. All fluorescence measurements were made using an SLM Aminco series 2 (Spectronic Instruments, Rochester, NY) spectrofluorimeter as previously described (Sheng R. et al. Nat Commun 3, 1249, 2012). To quantify changes in the Laurdan emission spectrum, generalized polarization (GP) values were calculated as follow: GP = (IB-IR)/(IB+IR), where IB (at 440 nm) and IR (at 490 nm) correspond to the intensities at the blue and red edges of the emission maxima, respectively (Bernardino de la Serna J et al., J Biol Chem 279, 40715-40722, 2004 and Sezgin E et al., Nat Rev Mol Cell Biol 18, 361-374, 2017).

As to `CC(CCCN=[N+]=[N-])C1CCC2C3CC=C4CC(O)CCC4(C)C3CCC12C` (centres unmarked) [chol-N3, 17-(5-azidopentan-2-yl)-10,13-dimethyl-2,3,4,7,8,9,10,11,12,13,14,15,16,17-tetradecahydro-1H-cyclopenta[a]phenanthren-3-ol], the “uptake in the presence of increasing extracellular chol” value in data set [1] is reported as “virtually abolished”. For the same molecule, in data set [2], the “membrane order (laurdan generalized polarization, GP) versus temperature” value was “same membrane order behavior irrespective of the chol analog used”.
